Read-outs that look alike come from different tables or passages of the source. Numbered stars: 1 amine (or outer) side, 2 acyl side, 3 side chain; on linkers, the order of the positions; unused ones are H or OH. Bridge positions count the residues as written; N and C are the ends. Side chains are listed from the residue outwards. Peptide text beside a SMILES is read from it. * marks the point of attachment. C20 diacid = O=C(O)CCCCCCCCCCCCCCCCCCC(=O)*; γGlu = O=C(O)[C@H](CCC(=O)[*:2])N[*:1]; AEEA = NCCOCCOCC(=O)O
Key:
[1] = biological target: T1, human calcitonin receptor (Homo sapiens, UniProt P30988); assay: Assay (II)a functional assay, human calcitonin receptor (CRE luciferase, BHK cells);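 note: luminescence from a CRE-driven luciferase reporter, read by single photon counting after cells were exposed to test samples for 3 h at 37 °C under 5% CO2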; assay type: cell-based; details: read-out: hCTR funct. EC50
T1 construct: expressed in transfected cells
T1 sequence (P30988 25-474): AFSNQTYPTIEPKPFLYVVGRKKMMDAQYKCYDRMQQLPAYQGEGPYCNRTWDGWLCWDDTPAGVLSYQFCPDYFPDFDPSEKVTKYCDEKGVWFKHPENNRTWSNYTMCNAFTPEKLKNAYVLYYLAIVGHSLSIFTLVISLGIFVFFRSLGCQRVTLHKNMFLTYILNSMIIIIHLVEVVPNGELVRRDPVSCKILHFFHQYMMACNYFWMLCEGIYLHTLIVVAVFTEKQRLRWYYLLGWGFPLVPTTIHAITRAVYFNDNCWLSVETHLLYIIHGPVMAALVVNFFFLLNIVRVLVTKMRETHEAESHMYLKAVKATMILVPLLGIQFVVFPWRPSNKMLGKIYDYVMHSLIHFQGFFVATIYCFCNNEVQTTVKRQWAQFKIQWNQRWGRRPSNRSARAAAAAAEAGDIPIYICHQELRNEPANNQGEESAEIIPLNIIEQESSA

[2] = biological target: T2, human amylin receptor (amylin 3(a) receptor: human calcitonin receptor + RAMP-3) (Homo sapiens, UniProt O60896+P30988); assay: Assay (II)a functional assay, human amylin receptor (CRE luciferase, BHK cells); assay type: cell-based; details: for EC50: read-out: hAmylin-R funct. EC50
T2 construct: expressed in transfected cells
T2 sequence (P30988 25-474): T1 sequence (P30988 25-474)
T2 sequence (O60896 24-148 partner): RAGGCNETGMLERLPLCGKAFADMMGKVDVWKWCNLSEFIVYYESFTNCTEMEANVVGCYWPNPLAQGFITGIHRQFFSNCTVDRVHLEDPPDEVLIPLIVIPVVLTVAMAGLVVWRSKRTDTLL

human amylin receptor = biological target: T3, human amylin receptor (Homo sapiens, UniProt O60896+P30988); assay: Assay (V) binding to the human amylin receptor (SPA, 125I-rat amylin); details: for IC50: human amylin receptor membranes, SPA, read-out: hAmylin-R bind IC50
T3 construct: expressed in transfected cells
T3 sequence (P30988 25-474): T1 sequence (P30988 25-474)
T3 sequence (O60896 24-148 partner): T2 sequence (O60896 24-148 partner)
Procedure, shortened: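 IC50, taken as receptor affinity, came from one-site binding competition analysis of scintillation proximity counts. Amylin 3(a)/CRE-luc cell membranes (35 ng/μL final) were mixed with SPA beads (0.05 mg/well) in 50 mM Hepes pH 7.4 containing CaCl2, MgCl2, 0.1% OA and 0.02% Tween20.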

[3] = biological target: T1, human calcitonin receptor; assay: Assay (VII) binding to the human calcitonin receptor (SPA, 125I-Calcitonin); details: read-out: hCTR bind IC50;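 note: cell membranes coupled to SPA beads, competitive displacement read by scintillation counting, IC50 derived from a one-site competition fit as a measure of receptor affinity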
Protocol: Membranes were prepared in the following way; the cells were rinsed with PBS and incubated with Versene for approximately 5 min before harvesting. The cells were flushed with PBS and the cell-suspension was centrifuged for 5 min at 1000 rpm. […] The resulting pellet was resuspended in buffer 2 and protein concentration was measured (BCA protein Assay, Pierce). The homogenate was kept cold during the whole procedure. The membranes were kept at −80° C. until use. Assay was performed in a 384 well Optiplate (PerkinElmer) in a total volume of 40 ul. Membranes were mixed with SPA beads. Final concentration of membranes 35 ng/μL final and Final concentration of SPA beads was 0.05 mg/well. Test-compounds were dissolved in DMSO and further diluted in assay buffer (50 mM Hepes, pH 7.4, 1 mM CaCl2, 5 mM MgCl2, 0.1% OA and 0.02% Tween20). […] Samples were analyzed on TopCounter™ (Packard). The IC50 was calculated using (one site binding competition analysis) GraphPad Prism5 as a measure of receptor affinity.

[4] = Table 6, human functional selectivity (hCTR EC50 / hAmylin-R EC50)
[5] = Table 6a, human functional selectivity (hCTR EC50 / hAmylin-R EC50), at least 5
[6] = Table 6i, hCTR funct. EC50 / hAmylin-R funct. EC50
[7] = Table 6i, human amylin receptor functional
[8] = Table 6j, hCTR funct. EC50 / hAmylin-R funct. EC50
[9] = Table 6k, hCTR funct. EC50 / hAmylin-R funct. EC50
[10] = functional assay, human amylin receptor

| SMILES | EC50 [1] | Ratio hCT/hAmylin funct. [2, 4] | Ratio hCT/hAmylin funct. [2, 5] | Ratio hCT/hAmylin funct. [2, 6] | EC50 [2, 7] | Ratio hCT/hAmylin funct. [2, 8] | Ratio hCT/hAmylin funct. [2, 9] | Ratio hCT/hAmylin binding (human amylin receptor; Table 7b, human calcitonin receptor binding IC50 divided by human amylin receptor binding IC50) | IC50 (human amylin receptor) | Ratio hCT/hAmylin binding (human amylin receptor; human binding ratio, included for comparison) | IC50 [3] | EC50 [2, 10] |
| --- | --- | --- | --- | --- | --- | --- | --- | --- | --- | --- | --- | --- |
| CC[C@H](C)[C@H](NC(=O)[C@H](C)NC(=O)CNC(=O)[C@H](Cc1ccccc1)NC(=O)[C@H](CC(N)=O)NC(=O)[C@@H]1CCCN1C(=O)[C@H](CO)NC(=O)[C@H](CO)NC(=O)[C@H](Cc1c[nH]cn1)NC(=O)[C@H](CCCNC(=N)N)NC(=O)[C@H](CC(C)C)NC(=O)[C@H](Cc1ccccc1)NC(=O)[C@H](CCC(=O)O)NC(=O)[C@H](C)NC(=O)[C@H](CC(C)C)NC(=O)[C@H](CCCNC(=N)N)NC(=O)[C@H](CCC(N)=O)NC(=O)[C@@H](NC(=O)[C@H](C)NC(=O)[C@@H]1CSSC[C@H](NC(=O)[C@H](CCCCN)NC(=O)CC[C@H](NC(=O)CCCCCCCCCCCCCCCCCCC(=O)O)C(=O)O)C(=O)N[C@@H](CC(N)=O)C(=O)N[C@@H]([C@@H](C)O)C(=O)N[C@@H](C)C(=O)N[C@@H]([C@@H](C)O)C(=O)N1)[C@@H](C)O)C(=O)N1CCC[C@H]1C(=O)N[C@@H](CO)C(=O)N[C@@H](CO)C(=O)N[C@H](C(=O)N1CCC[C@H]1C(=O)N[C@H](C(=O)NCC(=O)N[C@@H](CO)C(=O)N[C@@H](CC(N)=O)C(=O)N[C@H](C(=O)N[C@@H](Cc1ccc(O)cc1)C(N)=O)[C@@H](C)O)C(C)C)[C@@H](C)O [Example 31] ({C20 diacid-γGlu}-KCNTATCATQRLAEFLRHSSPNFGAIPSSTPVGSNTY-NH2; disulfide 2-7) | 717 pM | 6.4 | 6.4 | 6.4 | 112 pM | 6.4 | 6.4 | 16.0 | 204 pM | 16.0 | 3260 pM |  |
| CC[C@H](C)[C@H](NC(=O)[C@H](C)NC(=O)CNC(=O)[C@H](Cc1ccccc1)NC(=O)[C@H](CC(N)=O)NC(=O)[C@@H]1CCCN1C(=O)[C@H](CO)NC(=O)[C@H](CO)NC(=O)[C@H](Cc1c[nH]cn1)NC(=O)[C@H](CCCNC(=N)N)NC(=O)[C@H](CC(C)C)NC(=O)[C@H](Cc1ccccc1)NC(=O)[C@H](CCC(=O)O)NC(=O)[C@H](C)NC(=O)[C@H](CC(C)C)NC(=O)[C@H](CCCNC(=N)N)NC(=O)[C@H](CCC(N)=O)NC(=O)[C@@H](NC(=O)[C@H](C)NC(=O)[C@@H]1CSSC[C@H](NC(=O)[C@H](CCCCN)NC(=O)CC[C@H](NC(=O)CCCCCCCCCCCCCCCCCCC(=O)O)C(=O)O)C(=O)N[C@@H](CC(N)=O)C(=O)N[C@@H]([C@@H](C)O)C(=O)N[C@@H](C)C(=O)N[C@@H]([C@@H](C)O)C(=O)N1)[C@@H](C)O)C(=O)N1CCC[C@H]1C(=O)N[C@@H](CO)C(=O)N[C@@H](CO)C(=O)N[C@H](C(=O)N[C@@H](CC(N)=O)C(=O)N[C@H](C(=O)NCC(=O)N[C@@H](CCCCN)C(=O)N[C@@H](CC(N)=O)C(=O)N[C@H](C(=O)N[C@@H](Cc1ccc(O)cc1)C(N)=O)[C@@H](C)O)C(C)C)[C@@H](C)O [Example 36] ({C20 diacid-γGlu}-KCNTATCATQRLAEFLRHSSPNFGAIPSSTNVGKNTY-NH2; disulfide 2-7) | 1280 pM | 6.8 | 6.8 | 6.8 | 189 pM | 6.8 | 6.8 |  | 403 pM |  | 6310 pM |  |
| CC[C@H](C)[C@H](NC(=O)[C@H](C)NC(=O)CNC(=O)[C@H](Cc1ccccc1)NC(=O)[C@H](CC(N)=O)NC(=O)[C@@H]1CCCN1C(=O)[C@H](CO)NC(=O)[C@H](CO)NC(=O)[C@H](Cc1c[nH]cn1)NC(=O)[C@H](CCCNC(=N)N)NC(=O)[C@H](CC(C)C)NC(=O)[C@H](Cc1ccccc1)NC(=O)[C@H](CC(N)=O)NC(=O)[C@H](C)NC(=O)[C@H](CC(C)C)NC(=O)[C@H](CCCNC(=N)N)NC(=O)[C@H](CCC(N)=O)NC(=O)[C@@H](NC(=O)[C@H](C)NC(=O)[C@@H]1CSSC[C@H](NC(=O)[C@H](CCCCN)NC(=O)CC[C@H](NC(=O)CCCCCCCCCCCCCCCCCCC(=O)O)C(=O)O)C(=O)N[C@@H](CC(N)=O)C(=O)N[C@@H]([C@@H](C)O)C(=O)N[C@@H](C)C(=O)N[C@@H]([C@@H](C)O)C(=O)N1)[C@@H](C)O)C(=O)N1CCC[C@H]1C(=O)N[C@@H](CO)C(=O)N[C@@H](CO)C(=O)N[C@H](C(=O)N[C@@H](CC(N)=O)C(=O)N[C@H](C(=O)NCC(=O)N[C@@H](Cc1c[nH]cn1)C(=O)N[C@@H](CC(N)=O)C(=O)N[C@H](C(=O)N[C@@H](Cc1ccc(O)cc1)C(N)=O)[C@@H](C)O)C(C)C)[C@@H](C)O [Example 40] | 2680 pM |  |  |  |  |  |  |  | 549 pM |  | 17100 pM | 164 pM |
| CC[C@H](C)[C@H](NC(=O)[C@H](C)NC(=O)CNC(=O)[C@H](Cc1ccccc1)NC(=O)[C@H](CC(N)=O)NC(=O)[C@@H]1CCCN1C(=O)[C@H](CO)NC(=O)[C@H](CO)NC(=O)[C@H](Cc1c[nH]cn1)NC(=O)[C@H](CCCNC(=N)N)NC(=O)[C@H](CC(C)C)NC(=O)[C@H](Cc1ccccc1)NC(=O)[C@H](CC(N)=O)NC(=O)[C@H](C)NC(=O)[C@H](CC(C)C)NC(=O)[C@H](CCCNC(=N)N)NC(=O)[C@H](CCC(N)=O)NC(=O)[C@@H](NC(=O)[C@H](C)NC(=O)[C@@H]1CSSC[C@H](NC(=O)[C@H](CCCNC(=N)N)NC(=O)[C@@H](N)CCCCNC(=O)COCCOCCNC(=O)CC[C@H](NC(=O)CCCCCCCCCCCCCCCCCCC(=O)O)C(=O)O)C(=O)N[C@@H](CC(N)=O)C(=O)N[C@@H]([C@@H](C)O)C(=O)N[C@@H](C)C(=O)N[C@@H]([C@@H](C)O)C(=O)N1)[C@@H](C)O)C(=O)N1CCC[C@H]1C(=O)N[C@@H](CO)C(=O)N[C@@H](CO)C(=O)N[C@H](C(=O)N[C@@H](CC(N)=O)C(=O)N[C@H](C(=O)NCC(=O)N[C@@H](CO)C(=O)N[C@@H](Cc1c[nH]cn1)C(=O)N[C@H](C(=O)N[C@@H](Cc1ccc(O)cc1)C(N)=O)[C@@H](C)O)C(C)C)[C@@H](C)O [Example 45] (H-K([AEEA-γGlu-C20 diacid])RCNTATCATQRLANFLRHSSPNFGAIPSSTNVGSHTY-NH2; disulfide 3-8) | 10100 pM | 17.0 | 17.0 |  |  | 17.0 | 17.0 |  | 552 pM |  | 14800 pM | 594 pM |
| CC[C@H](C)[C@H](NC(=O)[C@H](C)NC(=O)CNC(=O)[C@H](Cc1ccccc1)NC(=O)[C@H](CC(N)=O)NC(=O)[C@@H]1CCCN1C(=O)[C@H](CO)NC(=O)[C@H](CO)NC(=O)[C@H](Cc1c[nH]cn1)NC(=O)[C@H](CCCNC(=N)N)NC(=O)[C@H](CC(C)C)NC(=O)[C@H](Cc1ccccc1)NC(=O)[C@H](CC(N)=O)NC(=O)[C@H](C)NC(=O)[C@H](CC(C)C)NC(=O)[C@H](CCCNC(=N)N)NC(=O)[C@H](CCC(N)=O)NC(=O)[C@@H](NC(=O)[C@H](C)NC(=O)[C@@H]1CSSC[C@H](NC(=O)[C@H](CCCNC(=N)N)NC(=O)CNC(=O)CC[C@H](NC(=O)CCCCCCCCCCCCCCCCCCC(=O)O)C(=O)O)C(=O)N[C@@H](CC(N)=O)C(=O)N[C@@H]([C@@H](C)O)C(=O)N[C@@H](C)C(=O)N[C@@H]([C@@H](C)O)C(=O)N1)[C@@H](C)O)C(=O)N1CCC[C@H]1C(=O)N[C@@H](CO)C(=O)N[C@@H](CO)C(=O)N[C@H](C(=O)N[C@@H](CC(N)=O)C(=O)N[C@H](C(=O)NCC(=O)N[C@@H](CO)C(=O)N[C@@H](CC(N)=O)C(=O)N[C@H](C(=O)N[C@@H](Cc1ccc(O)cc1)C(N)=O)[C@@H](C)O)C(C)C)[C@@H](C)O [Example 46] ({C20 diacid-γGlu}-GRCNTATCATQRLANFLRHSSPNFGAIPSSTNVGSNTY-NH2; disulfide 3-8) | 899 pM |  |  |  |  |  |  |  | 195 pM |  | 9530 pM | 88 pM |

Reference: patent publication US8575091B1, “Amylin analogues and pharmaceutical compositions thereof” (Novo Nordisk A/S, priority 2012, dated 2013)
